Values joined by “and” are separate entries in the source; they are usually repeats but may differ in a detail not shown here. Equal values may be shown once. Inconclusive results and toxic doses are left out.
Tested on: CD2F1 mice, L1210 leukemia ip, survival T/C
Experiment: NCI In Vivo Anticancer Drug Screen. Data for tumor model L1210 Leukemia (intraperitoneal) in CD2F1 (CDF1) mice
Details: higher = longer survival
Method in brief: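 Tumor-bearing mice (transplanted tumor) were split into treated and vehicle control groups, and the measured endpoint of each treated group was divided by that of its vehicle controls.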

[1] = endpoint: mean survival time, dose: 6.25 mg/kg/injection, schedule: Q04DX003 (ip), vehicle: saline
[2] = endpoint: mean survival time, dose: 12.5 mg/kg/injection, schedule: Q04DX003 (ip), vehicle: saline
[3] = endpoint: mean survival time, dose: 25.0 mg/kg/injection, schedule: Q04DX003 (ip), vehicle: saline
[4] = endpoint: mean survival time, dose: 50.0 mg/kg/injection, schedule: Q04DX003 (ip), vehicle: saline
[5] = endpoint: mean survival time, dose: 100.0 mg/kg/injection, schedule: Q04DX003 (ip), vehicle: saline
[6] = endpoint: mean survival time, dose: 100.0 mg/kg/injection, schedule: Q01DX009 (ip), vehicle: saline with Tween-80
[7] = endpoint: mean survival time, dose: 100.0 mg/kg/injection, schedule: Q04DX003 (ip), vehicle: saline with Tween-80
[8] = endpoint: mean survival time, dose: 200.0 mg/kg/injection, schedule: Q04DX003 (ip), vehicle: saline with Tween-80
[9] = endpoint: mean survival time, dose: 200.0 mg/kg/injection, schedule: Q01DX009 (ip), vehicle: saline with Tween-80
[10] = endpoint: mean survival time, dose: 400.0 mg/kg/injection, schedule: Q01DX009 (ip), vehicle: saline with Tween-80
[11] = endpoint: mean survival time, dose: 75.0 mg/kg/injection, schedule: Q01DX001 (ip), vehicle: saline
[12] = endpoint: mean survival time, dose: 400.0 mg/kg/injection, schedule: Q04DX003 (ip), vehicle: saline with Tween-80

SMILES: CC1CC(C)SC(C(C)(C)C)S1 (centres undefined)
- T/C (endpoint: mean survival time, dose: 12.5 mg/kg/injection, schedule: Q04DX002 (ip), vehicle: saline): 105 % of control
- T/C (endpoint: mean survival time, dose: 25.0 mg/kg/injection, schedule: Q04DX002 (ip), vehicle: saline): 97 % of control
- T/C (endpoint: mean survival time, dose: 50.0 mg/kg/injection, schedule: Q04DX002 (ip), vehicle: saline): 102 % of control

SMILES: Cc1cn(C2CC(O)C(CO)O2)c(=O)nc1N1CCCCCCC1 (centres undefined)
- T/C (endpoint: median survival time, dose: 12.5 mg/kg/injection, schedule: Q01DX005 (ip), vehicle: water): 102 % of control
- T/C (endpoint: median survival time, dose: 25.0 mg/kg/injection, schedule: Q01DX005 (ip), vehicle: water): 102 % of control
- T/C (endpoint: median survival time, dose: 50.0 mg/kg/injection, schedule: Q01DX005 (ip), vehicle: water): 102 % of control
- T/C (endpoint: median survival time, dose: 100.0 mg/kg/injection, schedule: Q01DX005 (ip), vehicle: water): 102 % of control
- T/C (endpoint: median survival time, dose: 200.0 mg/kg/injection, schedule: Q01DX005 (ip), vehicle: water): 103 % of control

SMILES: CC(=O)OC(CC(=O)CC(O)(C(F)(F)F)C(F)(F)F)(C(F)(F)F)C(F)(F)F
- T/C [1]: 95 % of control
- T/C [2]: 98 % of control
- T/C [3]: 96 % of control

SMILES: CS(C)=O.CS(C)=O.[Cl][Rh]([Cl])([Cl])[Cl]
- T/C (endpoint: mean survival time, dose: 12.5 mg/kg/injection, schedule: Q01DX009 (ip), vehicle: saline): 111 % of control
- T/C [2]: 100 % of control
- T/C (endpoint: mean survival time, dose: 25.0 mg/kg/injection, schedule: Q01DX009 (ip), vehicle: saline): 117 % of control
- T/C [3]: 98 % of control
- T/C (endpoint: mean survival time, dose: 50.0 mg/kg/injection, schedule: Q01DX009 (ip), vehicle: saline): 119 % of control
- T/C [4]: 100 % of control
- T/C [5]: 117 % of control

SMILES: CC(C)(C)c1ccccc1O[Si](C)(C)C
- T/C (endpoint: mean survival time, dose: 50.0 mg/kg/injection, schedule: Q01DX009 (ip), vehicle: saline with Tween-80): 105 % of control
- T/C [6]: 94 % of control
- T/C [7]: 97 % of control
- T/C [8]: 94 % of control

SMILES: C=CCCCCCCCCC(=O)NN1CCOCC1
- T/C [6]: 94 % of control
- T/C [9]: 91 % of control
- T/C [10]: 94 % of control

SMILES: COc1cc2c3c(c1)-c1c(ccc(OC)c1OC)CC3N(CCN(CCCl)CCCl)CC2 (centres undefined)
- T/C [1]: 101 % of control
- T/C [2]: 98 % of control
- T/C [3]: 101 % of control
- T/C [4]: 101 % of control
- T/C [5]: 87 % of control

SMILES: C/C=C(\C(=C\C)c1ccc(OC(=O)c2ccccc2)c(C2CCCCC2)c1)c1ccc(O)c(C2CCCCC2)c1
- T/C [11]: 95 % of control
- T/C (endpoint: mean survival time, dose: 150.0 mg/kg/injection, schedule: Q01DX001 (ip), vehicle: saline): 95 % of control
- T/C (endpoint: mean survival time, dose: 300.0 mg/kg/injection, schedule: Q01DX001 (ip), vehicle: saline): 103 % of control

SMILES: CN(CCC(=O)N(C)CCC1CCCCC1)CCC1CCCCC1
- T/C [11]: 98 % of control

SMILES: Cc1cc(-c2ccccc2)c2c(C#N)cn(-c3ccccc3)c2n1
- T/C (endpoint: mean survival time, dose: 100.0 mg/kg/injection, schedule: Q01DX001 (ip), vehicle: saline): 87 % of control
- T/C (endpoint: mean survival time, dose: 200.0 mg/kg/injection, schedule: Q01DX001 (ip), vehicle: saline): 92 % of control
- T/C (endpoint: mean survival time, dose: 400.0 mg/kg/injection, schedule: Q01DX001 (ip), vehicle: saline): 92 % of control

SMILES: O=C(Nc1ccccc1F)Nc1cccc2ccccc12
- T/C [7]: 98 % of control
- T/C [8]: 101 % of control
- T/C [12]: 96 % of control

SMILES: CCOC(=O)C(=CNc1ccc(C)cn1)C(=O)OCC
- T/C [6]: 93 % of control
- T/C [7]: 92 % of control
- T/C [9]: 98 % of control
- T/C [8]: 95 % of control
- T/C [10]: 97 % of control
- T/C [12]: 103 % of control

SMILES: Cc1ccccc1OP(=O)(c1ccccc1)c1ccccc1
- T/C [7]: 100 % of control
- T/C [8]: 105 % of control
- T/C [12]: 110 % of control

SMILES: Cc1ccc(S(=O)(=O)SCc2ccccc2)cc1
- T/C (endpoint: mean survival time, dose: 100.0 mg/kg/injection, schedule: Q01DX009 (ip), vehicle: other): 107 % of control
- T/C (endpoint: mean survival time, dose: 200.0 mg/kg/injection, schedule: Q01DX009 (ip), vehicle: other): 96 % of control

SMILES: CNC=O
- T/C (endpoint: mean survival time, dose: 100.0 mg/kg/injection, schedule: Q01DX009 (ip), vehicle: saline): 103 % of control and 111 % of control
- T/C (endpoint: mean survival time, dose: 200.0 mg/kg/injection, schedule: Q01DX009 (ip), vehicle: saline): 112 % of control
- T/C (endpoint: mean survival time, dose: 800.0 mg/kg/injection, schedule: Q01DX009 (ip), vehicle: saline): 164 % of control

— PubChem BioAssay AID256 (DTP/NCI, 2004)
